Laboratory results taken from patent US11814352B2, “Salts formed by 2-(1-acyloxy-n-pentyl) benzoic acid and basic amino acid or aminoguanidine, and preparation method and application thereof” (JIANGSU KANION PHARMACEUTICAL CO., LTD., priority 2018, dated 2023).

Legend:
[1] = test system: bleeding time in mice after tail cutting; assay: Effect on bleeding time in mice after tail cutting; assay type: in vivo, Kunming mice; conditions: 5 mg/kg orally once a day for 14 days, 1 h after last dose
Method: SPF Kunming mice, weighing 18-22 g, purchased from Beijing Vital River Laboratory Animal Technology Co., Ltd., having a certificate number of SCXK (Beijing) 2010-0002, raised in an SPF animal room with indoor temperature controlled at 23±2° C., and allowed to freely eat and drink. The day and night time was 12 h/12 h.
The administration dose level of the positive drug groups and the test drug groups was 5 mg/kg, and the same amount of normal saline was given to the negative control group. All mice were administered for 14 consecutive days orally once a day. One hour after the last dose, the mice were anesthetized with 1-2% isoflurane, and the tails were cut for 5 mm. The tips of the tails were absorbed dry with filter paper every 30 seconds until the bleeding stopped naturally. Bleeding time is defined as the interval between the start and stop of bleeding.

ICR mice = assay: Acute toxicity test, tail vein injection in mice; conditions: for Number of deaths (quantity): 10 animals, 14 days
[2] = Acute toxicity test, tail vein injection in mice; conditions: female, ICR, mouse, in vivo, iv, LD50 value, Bliss method

CCCC[C@H](OC(C)=O)c1ccccc1C(=O)O [I1s, L-Arginine (S)-2-(1-Acetoxy-n-Pentyl) Benzoate]
Bleeding time [1]: 25.31 ± 1.01 min | Symptoms of poisoning (ICR mice; higher dose in the tail vein): convulsions and decreased activity | Body weight D 1 (ICR mice; i.v. 700 mg/kg): 19.4 ± 0.6 g | Body weight D 7 (ICR mice; i.v. 700 mg/kg): 21.0 ± 0.6 g | Body weight D 14 (ICR mice; i.v. 700 mg/kg): 22.3 ± 0.7 g | Number of deaths (quantity) (ICR mice; i.v. 700 mg/kg): 1 | Body weight D 1 (ICR mice; i.v. 900 mg/kg): 19.8 ± 0.5 g | Body weight D 7 (ICR mice; i.v. 900 mg/kg): 20.9 ± 0.6 g | Body weight D 14 (ICR mice; i.v. 900 mg/kg): 22.2 ± 0.6 g | Number of deaths (quantity) (ICR mice; i.v. 900 mg/kg): 2 | Body weight D 1 (ICR mice; i.v. 1100 mg/kg): 19.4 ± 0.6 g | Body weight D 7 (ICR mice; i.v. 1100 mg/kg): 21.0 ± 0.5 g | Body weight D 14 (ICR mice; i.v. 1100 mg/kg): 22.0 ± 0.5 g | Number of deaths (quantity) (ICR mice; i.v. 1100 mg/kg): 4 | Body weight D 1 (ICR mice; i.v. 1300 mg/kg): 19.5 ± 0.4 g | Body weight D 7 (ICR mice; i.v. 1300 mg/kg): 20.8 ± 0.6 g | Body weight D 14 (ICR mice; i.v. 1300 mg/kg): 22.1 ± 0.6 g | Number of deaths (quantity) (ICR mice; i.v. 1300 mg/kg): 6 | Body weight D 1 (ICR mice; i.v. 1500 mg/kg): 19.9 ± 0.2 g | Body weight D 7 (ICR mice; i.v. 1500 mg/kg): 21.0 g | Body weight D 14 (ICR mice; i.v. 1500 mg/kg): 23.6 g | Number of deaths (quantity) (ICR mice; i.v. 1500 mg/kg): 9 | LD50 at 14 days [2]: 1120 mg/kg | LD50 at 14 days ([2]; interval in parentheses): 975 to 1290 mg/kg
